Legend:
[1] = system: Bovine brain tubulin (vinca domain); assay: Inhibition of [3H]vinblastine binding to tubulin; details: 5.0 μM tubulin, 5 μM [3H]vinblastine
Procedure: (§1) Bovine brain tubulin was prepared and the tubulin assembly and colchicine binding assays were performed as described previously. In the assembly assay, reaction mixtures contained 1.0 mg/mL (10 μM) tubulin and varying concentrations of potential inhibitors. In the colchicine binding assay reaction mixtures contained 0.1 mg/mL (1.0 μM) tubulin, 5.0 μM [^3H]colchicine, and potential inhibitor as indicated. The vinblastine binding assay was performed as described previously for GTP binding by centrifugal gel filtration, except that a Beckman Allegra 6KR centrifuge equipped with a GH-3.8A swinging bucket rotor was used and the syringe-columns were centrifuged at 2,000 rpm (Ref. 38-41). Reaction mixtures contained 0.5 mg/mL (5.0 μM) tubulin, 5 μM [^3H]vinblastine, potential inhibitor as indicated, 0.5 mM MgCl2, 0.1 M 4-morpholineethanesulfonate (1.0 M stock solution adjusted to pH 6.9 with NaOH, and 4% (v/v) dimethyl sulfoxide. Incubation (30 min) and centrifugal gel filtration were performed at room temperature (20-22° C.).

[2] = system: human cancer cell lines and murine P388; assay: cells; format: cell-based; details: mini-panel of human cancer cell lines
Procedure: (§2) Cytotoxicity assays were performed by the sulforhodamine B method, in which inhibition of formation of cellular protein is measured (Ref. 42). The mitotic index of MCF-7 breast cancer cells was determined as described previously (Ref. 27), except that cells were incubated in the presence of drug for 16 h prior to addition of the DNA stain.

[3] = system: P388 lymphocytic leukemia cell line; format: cell-based; details: murine P388 lymphocytic leukemia cell line
Procedure: as §2

[4] = system: MCF-7 breast cancer cells; assay: Inhibition of growth of MCF-7 breast cancer cells (sulforhodamine B); format: cell-based, human
Procedure: as §2

[5] = system: Bovine brain tubulin (colchicine site); assay: Inhibition of [3H]colchicine binding to tubulin; details: 50 μM inhibitor; 1.0 μM tubulin, 5.0 μM [3H]colchicine
Procedure: as §1

DU145 = assay: cells; format: cell-based, human; details: DU145
Procedure: as §2

KM20L2 = assay: cells; format: cell-based, human; details: KM20L2
Procedure: as §2

MCF-7 = assay: cells; format: cell-based, human; details: MCF-7
Procedure: as §2

SF-295 = assay: cells; format: cell-based, human
Procedure: as §2

NCI-H460 = assay: cells; format: cell-based, human
Procedure: as §2

BXPC-3 = assay: cells; format: cell-based, human
Procedure: as §2

Bovine brain tubulin = assay: Inhibition of tubulin assembly; format: biochemical; details: 1.0 mg/mL (10 μM) tubulin; read-out: Inhibition of tubulin assembly IC50 (μM) ± SD
Procedure: as §1

[6] = system: MCF-7 breast cancer cells; assay: Mitotic index of MCF-7 cells; format: cell-based, human; details: 16 h at 10 times the IC50 concentration; without drug 2.9%
Procedure: as §2

CC[C@H](C)[C@@H]([C@@H](CC(=O)N1CCC[C@H]1[C@H](OC)[C@@H](C)C(=O)Nc1cc(/C=C\c2cc(OC)c3c(c2)OCO3)ccc1OC)OC)N(C)C(=O)[C@@H](NC(=O)[C@H](C(C)C)N(C)C)C(C)C [Compound 16, 3,4-Methylenedioxy-5,4′-dimethoxy-3′-(Dov-Val-Dil-Dap)-amido-Z-stilbene]
Inhibition of vinblastine binding % Inhibition ± SD ([1]; 10 μM inhibitor): 48 ± 3%
Inhibition of vinblastine binding % Inhibition ± SD ([1]; 80 μM inhibitor): 87 ± 2%
inhibition of mini-panel of human cancer cell lines (in words) [2]: strongly inhibiting
Leukemia P388 ED50 [3]: <0.01 µg/mL
IC50 ([4]; MCF-7, read-out: Inhibition of growth of MCF-7 breast cancer cells IC50 (nM) ± SD): 17 nM
times as active as hydrochloride 1b, MCF-7 cells ([4]; relative to 1b): ~4 times
activity as fraction of D-10 (4a), MCF-7 cells ([4]; relative to 4a): 1/200
Inhibition of colchicine binding % Inhibition ± SD [5]: 30 ± 2%
Prostate DU145 GI50 (DU145): 0.032 µg/mL
Colon KM20L2 GI50 (KM20L2): 0.020 µg/mL
Breast MCF-7 GI50 (MCF-7): 0.0031 µg/mL
CNS SF-295 GI50 (SF-295): 0.025 µg/mL
Lung-NSC NCI-H460 GI50 (NCI-H460): 0.033 µg/mL
Pancreas BXPC-3 GI50 (BXPC-3): 0.048 µg/mL
IC50 (Bovine brain tubulin): 1.3 ± 0.04 µM
Mitotic index of MCF-7 cells % Mitoses [6]: 57%

Source: patent publication US20090221666A1, “STILBENE DERIVATIVES AND METHODS OF INHIBITING CANCER CELL GROWTH AND MICROBIAL GROWTH” (priority 2005, published 2009)
